According to US8748471B2, “2-alkyl-cycloalk(en)yl-carboxamides” (priority 2004, dated 2014):
Like-named read-outs stand apart in the source and are kept apart here.

Key:
[1] = log P determination by HPLC on reverse-phase column (C 18), acidic range pH 2.3 (EEC Directive 79/831 Annex V. A8); assay type: physicochemical; conditions: for chromatographic logP: reverse-phase HPLC column (C 18)
Procedure: The stated log P values were determined in accordance with EEC Directive 79/831 Annex V. A8 by HPLC (High Performance Liquid Chromatography) on a reverse-phase column (C 18). Temperature: 43° C. Mobile phases for the determination in the acidic range (pH 2.3): 0.1% aqueous phosphoric acid, acetonitrile; linear gradient from 10% acetonitrile to 90% acetonitrile. Calibration was carried out using unbranched alkan-2-ones (having 3 to 16 carbon atoms) with known log P values (determination of the log P values by the retention times using linear interpolation between two successive alkanones).

Puccinia recondita = test: Puccinia test (wheat)/protective; assay type: in vivo; conditions: 240 h, protective, application rate 500 g/ha, evaluation 10 days after inoculation, 0% = control, 100% = no infection, read-out: Efficacy in %
Procedure: (§1) To produce a suitable preparation of active compound, 1 part by weight of active compound is mixed with the stated amounts of solvent and emulsifier, and the concentrate is diluted with water to the desired concentration.
To test for protective activity, young plants are sprayed with the preparation of active compound at the stated application rate. After the spray coating has dried on, the plants are sprayed with a conidia suspension of Puccinia recondita. The plants remain in an incubation cabinet at 20° C. and 100% relative atmospheric humidity for 48 hours. The plants are then placed in a greenhouse at a temperature of about 20° C. and a relative atmospheric humidity of 80%.
(§2) Evaluation is carried out 10 days after the inoculation. 0% means an efficacy which corresponds to that of the control, whereas an efficacy of 100% means that no infection is observed.

Botrytis cinerea = test: Botrytis test (bean)/protective; assay type: in vivo; conditions: protective, application rate 500 g/ha, evaluation 2 days after inoculation (size of infected areas), 0% = control, 100% = no infection
Procedure: (§3) To produce a suitable preparation of active compound, 1 part by weight of active compound is mixed with the stated amounts of solvents and emulsifier, and the concentrate is diluted with water to the desired concentration.
To test for protective activity, young plants are sprayed with the preparation of active compound at the stated application rate. After the spray coating has dried on 2 small pieces of agar colonized by Botrytis cinerea are placed onto each leaf. The inoculated plants are placed in a dark chamber at about 20° C. and 100% relative atmospheric humidity.
2 days after the inoculation, the size of the infected areas on the leaves is evaluated. 0% means an efficacy which corresponds to that of the control, whereas an efficacy of 100% means that no infection is observed.

Venturia inaequalis = test: Venturia test (apple)/protective; assay type: in vivo; conditions: protective, application rate 100 g/ha, evaluation 10 days after inoculation, 0% = control, 100% = no infection
Procedure: as §3
To test for protective activity, young plants are sprayed with the preparation of active compound at the stated application rate. After the spray coating has dried on, the plants ate inoculated with an aqueous conidia suspension of the apple scab pathogen Venturia inaequalis and then remain in an incubation cabinet as about 20° C. and 100% relative atmospheric humidity for 1 day. The plants are then placed in a greenhouse at about 21° C. and a relative atmospheric humidity of about 90%.
as §2

Alternaria solani = test: Alternaria test (tomato)/protective; assay type: in vivo; conditions: protective, application rate 750 g/ha, evaluation 7 days after inoculation, 0% = control, 100% = no infection
Procedure: as §1
To test for protective activity, young tomato plants are sprayed with the preparation of active compound at the stated application rate. 1 day after the treatment, the plants are inoculated with a spore suspension of Alternaria solani and then remain at 100% relative atmospheric humidity and 20° C. for 24 h. The plants then remain at 96% relative atmospheric humidity and a temperature of 20° C.
Evaluation is carried out 7 days after the inoculation. 0% means an efficacy which corresponds to that of the control, whereas an efficacy of 100% means that no infection is observed.

[2] = Table 1 (I-c), pH 2.3, HPLC C18, 43° C., main diastereomer or, where several values in a cell, the individual diastereomers
[3] = pH 2.3, Table 1 (I-c), pH 2.3, HPLC C18, 43° C., main diastereomer or, where several values in a cell, the individual diastereomers, read-out: logP
[4] = Table 3 (I-k), pH 2.3, HPLC C18, 43° C., main diastereomer or the individual diastereomers

| SMILES | logP [1, 2] | further results |
| --- | --- | --- |
| CC(C)(C)CCC1CCCCC1NC(=O)C1=C(C(F)(F)F)OCCS1 (mixture of isomers) [I-c-39] | 4.66 |  |
| Cn1cc(C(=O)NC2CCCCC2CCC(C)(C)C)c(C(F)(F)F)n1 (mixture of isomers) [I-c-40] | 4.45 |  |
| Cn1cc(C(=O)NC2CCCCC2CCC(C)(C)C)c(C(F)(F)F)c1 (mixture of isomers) [I-c-41] | 4.88 |  |
| CC(C)(C)CCC1CCCCC1NC(=O)c1nccnc1Cl (mixture of isomers) [I-c-42] | 4.27 |  |
| Cc1nc(C(F)(F)F)c(C(=O)NC2CCCCC2CCC(C)C)s1 (mixture of isomers) [I-c-56] | 4.6 |  |
| CC(C)CCC1CCCCC1NC(=O)c1cn(C)nc1C(F)(F)F (mixture of isomers) [I-c-57] | 4.19 |  |
| CC(C)CCC1CCCCC1NC(=O)c1cccnc1Cl (mixture of isomers) [I-c-58] | 3.76 |  |
| Cc1nc(C(F)F)c(C(=O)NC2CCCCC2CCC(C)C)s1 (mixture of isomers) [I-c-59] | 4.46 |  |
| Cc1nn(C)c(F)c1C(=O)NC1CCCCC1CCC(C)C (mixture of isomers) [I-c-60] | 3.79 |  |
| CC(C)CCC1CCCCC1NC(=O)c1ccccc1C(F)(F)F (mixture of isomers) [I-c-61] | 4.59 |  |
| CC(C)CCC1CCCCC1NC(=O)c1cn(C)nc1C(F)F (mixture of isomers) [I-c-62] | 3.95 |  |
| Cc1nn(C)cc1C(=O)NC1CCCCC1CCC(C)C (mixture of isomers) [I-c-63] | 3.19 |  |
| CC(C)CCC1CCCCC1NC(=O)C1=C(C(F)(F)F)OCCS1 (mixture of isomers) [I-c-64] | 4.42 |  |
| Cc1occc1C(=O)NC1CCCCC1CCC(C)C (mixture of isomers) [I-c-65] | 4.28 |  |
| CC1=C(C(=O)NC2CCCCC2CCC(C)C)SCCO1 (mixture of isomers) [I-c-68] | 4.51 |  |
| CC(C[Si](C)(C)C)C1CCCCC1NC(=O)c1cn(C)nc1C(F)F (mixture of isomers) [I-k-6] |  | logP ([1]; pH 2.3): 4.56 |
| Cc1nc(C(F)F)c(C(=O)NC2CCCCC2C(C)C[Si](C)(C)C)s1 (mixture of isomers) [I-k-8] |  | logP ([1]; pH 2.3): 5.13 |
| CC(C)CC(C)C1CCCCC1N (stereo not shown) [2-(1,3-dimethylbutyl)cyclohexanamine] |  | chromatographic logP ([1]; pH 2.3, text of Example 1, pH 2.3, two values = mixture of diastereomers, read-out: log P (pH 2.3)): 4.07 |
| CC(C)CC(C)C1CCCCC1NC(=O)c1cccnc1Cl (stereo not shown) [I-c-2] | 4.04 |  |
| Cc1nc(C(F)(F)F)c(C(=O)NC2CCCCC2C(C)CC(C)C)s1 (stereo not shown) [I-c-3] | 4.71 | chromatographic logP [1, 3]: 4.66; pest or weed control at 500 g/ha (Puccinia recondita): 100% |
| CC(C)CC(C)C1CCCCC1NC(=O)c1cn(C)nc1C(F)(F)F (stereo not shown) [I-c-6] | 4.53 | Efficacy in % (Botrytis cinerea): 90%; chromatographic logP [1, 3]: 4.1; Efficacy in % (Venturia inaequalis): 99%; pest or weed control at 500 g/ha (Puccinia recondita): 100% |
| Cc1ccsc1C(=O)NC1CCCCC1C(C)CC(C)C (stereo not shown) [I-c-9] | 5.15 | chromatographic logP [1, 3]: 4.73; pest or weed control at 500 g/ha (Puccinia recondita): 100% |
| CC1=C(C(=O)NC2CCCCC2C(C)CC(C)C)SCCO1 (stereo not shown) [I-c-10] | 4.83 | Efficacy in % (Alternaria solani): 100%; chromatographic logP [1, 3]: 4.52; pest or weed control at 500 g/ha (Puccinia recondita): 100% |
| CC(C)CC(C)C1CCCCC1NC(=O)c1cn(C)cc1C(F)(F)F (stereo not shown) [I-c-11] | 4.83 | Efficacy in % (Botrytis cinerea): 96%; chromatographic logP [1, 3]: 4.45; Efficacy in % (Venturia inaequalis): 90% |
| Cc1occc1C(=O)NC1CCCCC1C(C)CC(C)C (stereo not shown) [I-c-12] | 4.58 | chromatographic logP [1, 3]: 4.27; pest or weed control at 500 g/ha (Puccinia recondita): 100% |
| Cn1cc(C(=O)NC2CCCCC2CCC(C)(C)C)c(C(F)F)n1 (stereo not shown) [I-c-19] | 4.22 |  |
| Cc1nc(C(F)F)c(C(=O)NC2CCCCC2CCC(C)(C)C)s1 (stereo not shown) [I-c-23] | 4.71 |  |

| SMILES | logP [1, 2] | further results |
| --- | --- | --- |
| Cn1nc(C(F)(F)F)c(C(=O)NC2CCCCC2CCC(C)(C)C)c1F (stereo not shown) [I-c-24] | 4.72 |  |
| Cc1occc1C(=O)NC1CCCCC1CCC(C)(C)C (stereo not shown) [I-c-25] | 4.55 |  |
| CC1=C(C(=O)NC2CCCCC2C(C)CC(C)C)CCO1 (stereo not shown) [I-c-26] | 4.06 |  |
| CC(C)CCC1CCCCC1NC(=O)c1cn(C)cc1C(F)(F)F (stereo not shown) [I-c-69] | 4.61 |  |
| CC(C)CCC1CCCCC1NC(=O)c1ccccc1I (stereo not shown) [I-c-70] | 4.66 |  |
| CC(C)CCC1CCCCC1NC(=O)c1ccccc1Cl (stereo not shown) [I-c-71] | 4.54 |  |
| CC(C)CCC1CCCCC1NC(=O)c1ccsc1I (stereo not shown) [I-c-72] | 4.8 |  |
| CC(C)CCC1CCCCC1NC(=O)c1c(C(F)(F)F)nn(C)c1F (stereo not shown) [I-c-74] | 4.47 |  |
| CC(C)CCCC1CCCCC1NC(=O)c1cccnc1Cl (stereo not shown) [I-c-75] | 4.22 |  |
| CC(C)CCCC1CCCCC1NC(=O)c1cn(C)nc1C(F)(F)F (stereo not shown) [I-c-76] | 4.66 |  |
| Cc1nn(C)c(Cl)c1C(=O)NC1CCCCC1CCC(C)C (stereo not shown) [I-c-77] | 4.07 |  |
| Cc1nc(C(F)F)c(C(=O)NC2CCCCC2CCCC(C)C)s1 (stereo not shown) [I-c-78] | 4.95 |  |
| Cc1nc(C(F)(F)F)c(C(=O)NC2CCCCC2CCCC(C)C)s1 (stereo not shown) [I-c-79] | 5.06 |  |
| Cn1cc(C(=O)NC2CCCCC2CCC(C)(C)C)c(C(F)F)n1 (stereo not shown) [I-c-81] | 4.24 |  |
| Cn1nc(C(F)(F)F)c(C(=O)NC2CCCCC2CCC(C)(C)C)c1F (stereo not shown) [I-c-82] | 4.72 |  |
| CC(C)CCCC1CCCCC1NC(=O)c1cn(C)nc1C(F)F (stereo not shown) [I-c-83] | 4.40 |  |
| Cc1nn(C)c(F)c1C(=O)NC1CCCCC1CCCC(C)C (stereo not shown) [I-c-84] | 4.30 |  |
| CC(C)CCCC1CCCCC1NC(=O)c1cn(C)cc1C(F)(F)F (stereo not shown) [I-c-86] | 5.05 |  |
| CC(C)(C)CCC1CCCCC1NC(=O)c1sccc1C(F)(F)F (stereo not shown) [I-c-95] | 5.03 |  |
| CC(C)CC(C)C1CCCCC1NC(=O)c1sccc1C(F)(F)F (stereo not shown) [I-c-96] | 5.03 |  |
| CC(C)(C)CCC1CCCCC1NC(=O)c1ccsc1C(F)(F)F (stereo not shown) [I-c-97] | 4.87 |  |
| CC(C)CC(C)C1CCCCC1NC(=O)c1ccsc1C(F)(F)F (stereo not shown) [I-c-98] | 4.92 |  |
| CC(CC(C)(C)C)C1CCCCC1NC(=O)c1sccc1C(F)(F)F (stereo not shown) [I-c-99] | 5.29 |  |
| Cc1nn(C)c(F)c1C(=O)NC1CCCCC1CC[Si](C)(C)C (stereo not shown) [I-k-1] |  | logP [1, 4]: 4.15 |
| Cc1nn(C)c(F)c1C(=O)NC1CCCCC1C(C)C[Si](C)(C)C (stereo not shown) [I-k-2] |  | logP [1, 4]: 4.51 |
| C[Si](C)(C)CCC1CCCCC1NC(=O)c1ccsc1I (stereo not shown) [I-k-3] |  | logP ([1]; pH 2.3): 5.13 |
| CC(C[Si](C)(C)C)C1CCCCC1NC(=O)c1ccsc1I (stereo not shown) [I-k-4] |  | logP ([1]; pH 2.3): 5.44 |
